The values below come from paper PMC2818847 (PLoS ONE, 2010).

What is called Kd is a measure of binding affinity in units of concentration. Lower therefore signals a tighter complex.

The experiment has as its target T1, Py235 (reticulocyte binding protein), nucleotide binding domain NBD94 (Plasmodium yoelii, UniProt Q7RPU0).
T1 construct: gene PY01365
Briefly: fluorescence correlation spectroscopy titration.

As to EDA-ADP ATTO-647N, the Kd amounted to 331 ± 1.8 µM. For EDA-ATP ATTO-647N, the Kd stood at 228 ± 2.3 µM.
